Test results as given in patent US4073918A, “Phenoxyalkylcarboxylic acid amides of substituted thiazolidinecarboxylic acids and their utilization in medicaments” (Ludwig Merckle KG, priority 1974, dated 1978).

Experiments:
normal lipemic CFY-rat = assay: Normolipemic test (serum cholesterol and triglycerides); format: in vivo; details: 14 days; for Serum Cholesterol / Serum Triglycerides: 24 h after last administration; for Serum Cholesterol, Lowering % / Serum Triglycerides, Lowering %: vs control
Protocol: (§1) In contrast therewith, the inventive compounds having the general formula (I) show based on the normal lipemic as well as the hypercholesteremic rat models, a distinct anti-lipemic and, in particular anti-cholesteremic effect. […] This activity loss of clofibrate on the hyperlipemic demands is also found a number of times in the literature. The antilipemic activity of the inventive compounds, as well as that of clofibrate as the reference substance, was determined on a normal lipemic CFY-rat during an examination time period of 14 days. During this time, the animals received a normal laboratory diet. (Spratt's No. 1).
(§2) After a 4-day acclimatization period the animals orally received the test compound as a suspension in 1% tragacanth-solution, or the vehicle alone (control group). The control-group consisted of 20 animals, while the test groups contained 10 animals. 24 hours after the last administration, blood samples were taken for determining the serum triglycerides and serum cholesterol level.

hypercholesteremic rat = assay: Hypercholesteremic test (serum cholesterol and triglycerides); format: in vivo; details: for Serum Cholesterol / Serum Triglycerides: hypercholesteremic rat (2% cholesterol, 1% cholic acid diet); for Serum Cholesterol, Lowering % / Serum Triglycerides, Lowering %: hypercholesteremic rat, vs control
Protocol: as §1, §2
The hypercholesteremic test was carried out on the same animals and under the same examining conditions, as was carried out in the normal lipemic test. The animals received a normal laboratory diet (Spratt's No. 2), having added thereto 2% cholesterol and 1% cholic acid.

laboratory rats [1] = details: Literature reference; 20160 min; cited from earlier work
[2] = test system: galactosamine-hepatitis-model; details: Arzneimittel-Forschung 23, 56, 1973, cited from earlier work
[3] = in vivo; cited from earlier work
[4] = Pharmacological screening for 51 pharmacological parameters; format: in vivo
[5] = Acute oral toxicity (LD50, Litchfield and Wilcoxon); format: in vivo; details: in vivo, rat, suspension in 0.5% aqueous Tween 80, observation 14 days
Protocol: (§3) The acute oral toxicity of the inventive compounds of Examples 18 and 23 was tested on, respectively, five male and female laboratory rats each having a weight of 200 ± 20g. The compounds tested were prepared as suspension in 0.5 %-aqueous Tween 80-solution. The observation time period was 14 days. The determination of the LD50 -values was carried out pursuant to the methods of Litchfield and Wilcoxon.

mouse = assay: Pharmacological screening, abdominal tone in the mouse; format: in vivo; details: 100 mg/kg intraperitoneal
laboratory rats [6] = assay: Acute oral toxicity (LD50, Litchfield and Wilcoxon); format: in vivo; details: rat, 14 days, Litchfield and Wilcoxon
Protocol: as §3

Structure (SMILES)	Serum Cholesterol (normal lipemic CFY-rat; 300 mg/kg oral) [mg %]	Serum Triglycerides (normal lipemic CFY-rat; 300 mg/kg oral) [mg %]	Serum Cholesterol, Lowering % (normal lipemic CFY-rat; 300 mg/kg oral) [%]	Serum Triglycerides, Lowering % (normal lipemic CFY-rat; 300 mg/kg oral) [%]	Serum Cholesterol (hypercholesteremic rat; 300 mg/kg oral) [mg %]	Serum Triglycerides (hypercholesteremic rat; 300 mg/kg oral) [mg %]	Serum Cholesterol, Lowering % (hypercholesteremic rat; 300 mg/kg oral) [%]	side effects in pharmacological screening [4]	Serum Cholesterol (normal lipemic CFY-rat; 100 mg/kg oral) [mg %]	Serum Triglycerides (normal lipemic CFY-rat; 100 mg/kg oral) [mg %]	Serum Triglycerides, Lowering % (normal lipemic CFY-rat; 100 mg/kg oral) [%]	Serum Cholesterol (hypercholesteremic rat; 100 mg/kg oral) [mg %]	Serum Triglycerides (hypercholesteremic rat; 100 mg/kg oral) [mg %]	Serum Cholesterol, Lowering % (hypercholesteremic rat; 100 mg/kg oral) [%]	also measured
CCOC(=O)C(C)(C)Oc1ccc(Cl)cc1 [Clofibrate, 2-(p-chlorophenoxy)-2-methylpropionic acid ethyl ester, reference compound]	56.1	66.5	27.0	46.3	347.9	75.6	3.0	–	–	–	–	–	–	–	activity on the hypercholesteremic models (in words) (hypercholesteremic rat; hypercholesteremic models): shows no more activity; Serum Triglycerides, Lowering % (hypercholesteremic rat; 300 mg/kg oral): 12.5%; LD50 (laboratory rats [1]): ~1200 mg/kg
CC(C)(S)[C@@H](N)C(=O)O [D-penicillamine]	–	–	–	–	–	–	–	–	–	–	–	–	–	–	influence on lipid material exchange (in words) [2]: satisfactory influence on lipid material exchange; liver protective effect; release of SH-groups, stimulation of nucleic acids and protein synthesis (in words) ([2]; galactosamine-hepatitis-model): These properties are also shown by D-penicillamine; known side effects [3]: allergic reactions, leukopenia or gastrointestinal disturbances
CC(C)(Oc1ccc(Cl)cc1)C(=O)NCC1NC(C(=O)O)C(C)(C)S1 (centres unmarked) [Example 17]	81.5	91.2	13.1	–	296.1	96.4	7.2	no special side effects were seen	81.8	77.3	11.2	353.8	85.0	–	Serum Cholesterol, Lowering % (normal lipemic CFY-rat; 100 mg/kg oral): 12.8%; Serum Triglycerides, Lowering % (hypercholesteremic rat; 100 mg/kg oral): 1.2%
CC(Oc1ccc(Cl)cc1)C(=O)N1C(C(=O)O)C(C)(C)SC1(C)C (centres unmarked) [Example 18, 2,2,5,5-tetramethyl-3-2-(p-chlorophenoxy)propionyl!-thiazolidine-4-carboxylic acid]	95.3	82.5	–	12.6	470.3	72.4	20.5	no special side effects were seen	95.8	68.7	27.2	412.9	71.4	30.2	LD50 at 336 h [5]: > 5000 mg/kg; abdominal tone (mouse): a small reduction of the abdominal tone was observed
CC(C)(Oc1ccc(Cl)cc1)C(=O)N1C(C(=O)O)C(C)(C)SC1(C)C (centres unmarked) [Example 19]	82.0	72.7	4.9	23.0	595.6	66.0	–	–	93.1	75.2	20.3	549.1	65.9	7.1	–
CC1(C)SC(C)(C)N(C(=O)COc2ccc(Cl)cc2)C1C(=O)O (centres unmarked) [Example 20, 2,2,5,5-tetramethyl-3-(p-chlorophenoxyacetyl)-thiazolidine-4-carboxylic acid]	73.0	66.0	15.3	30.1	479.6	92.2	18.9	–	87.8	67.6	28.4	503.9	88.1	14.8	–
CC(C)(Oc1ccc(Cl)cc1)C(=O)NCC1SC(C)(C)C(C(=O)O)N1C(=O)COc1ccc(Cl)cc1 (centres unmarked) [Example 21, 2-2-(p-chlorophenoxy)-2-methyl-propionylamidomethyl!-5,5-dimethyl-3-(p-chlorophenoxyacetyl)-thilazolidine-4-carboxylic acid]	90.8	72.4	5.9	–	465.1	41.3	–	no special side effects were seen	89.4	59.1	11.4	501.2	51.0	–	Serum Cholesterol, Lowering % (normal lipemic CFY-rat; 100 mg/kg oral): 7.3%; Serum Triglycerides, Lowering % (hypercholesteremic rat; 100 mg/kg oral): 5.9%; Serum Triglycerides, Lowering % (hypercholesteremic rat; 300 mg/kg oral): 23.9%
CC1(C)SC2(CCCCC2)N(C(=O)COc2ccc(Cl)cc2)C1C(=O)O (centres unmarked) [Example 23]	–	–	–	–	–	–	–	–	–	–	–	–	–	–	Effective limits (of LD50) (laboratory rats [6]): 3680 to 5130 mg/kg; LD50 at 336 h [5]: 4350 mg/kg
